Source: the supplement of paper PMC4932681

Assays:
BT-474 Tam1 [1] = assay: drug sensitivity score (DSS) (DSS (dimensionless)); higher = more sensitive; extreme values may be limits of the assay; conditions: 4-OH-tamoxifen in medium 1 µM; 72 h
In short: (§1)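 CellTiter-Glo viability was the readout, taken on a PHERAstar and normalised to vehicle-only and positive controls. It was measured after breast cancer cell lines and their resistant derivatives spent 72 h at 37 °C in 384-well plates containing library drugs at five concentrations spanning a 10 000-fold range, with 1 μM of the selecting drug in the medium of resistant lines. From logistic dose–response fits in the Breeze pipeline came drug sensitivity score, relative IC50 (curve midpoint) and top-dose inhibition.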

BT-474 Tam2 [2] = assay: as above; conditions: 4-OH-tamoxifen in medium 1 µM; 72 h
In short: as §1

BT-474 [3] = assay: as above; conditions: 72 h
In short: as §1

MCF-7 Tam1 [4] = assay: as above; conditions: 4-OH-tamoxifen in medium 1 µM; 72 h
In short: as §1

MCF-7 [5] = assay: as above; conditions: 72 h
In short: as §1

T-47D Tam1 [6] = assay: as above; conditions: 4-OH-tamoxifen in medium 1 µM; 72 h
In short: as §1

T-47D Tam2 [7] = assay: as above; conditions: 4-OH-tamoxifen in medium 1 µM; 72 h
In short: as §1

T-47D [8] = assay: as above; conditions: 72 h
In short: as §1

ZR-75-1 Tam1 [9] = assay: as above; conditions: 4-OH-tamoxifen in medium 1 µM; 72 h
In short: as §1

ZR-75-1 Tam2 [10] = assay: as above; conditions: 4-OH-tamoxifen in medium 1 µM; 72 h
In short: as §1

ZR-75-1 [11] = assay: as above; conditions: 72 h
In short: as §1

BT-474 Tam1 [12] = assay: relative IC50 (midpoint of fitted logistic curve, plateau may be below 50% inhibition; CellTiter-Glo viability); higher = less potent; conditions: 4-OH-tamoxifen in medium 1 µM; 72 h
In short: as §1

BT-474 Tam2 [13] = assay: as above; conditions: 4-OH-tamoxifen in medium 1 µM; 72 h
In short: as §1

BT-474 [14] = assay: as above; conditions: 72 h
In short: as §1

MCF-7 Tam1 [15] = assay: as above; conditions: 4-OH-tamoxifen in medium 1 µM; 72 h
In short: as §1

MCF-7 [16] = assay: as above; conditions: 72 h
In short: as §1

T-47D Tam1 [17] = assay: as above; conditions: 4-OH-tamoxifen in medium 1 µM; 72 h
In short: as §1

T-47D Tam2 [18] = assay: as above; conditions: 4-OH-tamoxifen in medium 1 µM; 72 h
In short: as §1

T-47D [19] = assay: as above; conditions: 72 h
In short: as §1

ZR-75-1 Tam1 [20] = assay: as above; conditions: 4-OH-tamoxifen in medium 1 µM; 72 h
In short: as §1

ZR-75-1 Tam2 [21] = assay: as above; conditions: 4-OH-tamoxifen in medium 1 µM; 72 h
In short: as §1

ZR-75-1 [22] = assay: as above; conditions: 72 h
In short: as §1

| SMILES | drug sensitivity score (BT-474 Tam1 [1]) | drug sensitivity score (BT-474 Tam2 [2]) | drug sensitivity score (BT-474 [3]; 4-OH-tamoxifen in medium 0 µM) | drug sensitivity score (BT-474 [3]; 4-OH-tamoxifen in medium 1 µM) | drug sensitivity score (MCF-7 Tam1 [4]) | drug sensitivity score (MCF-7 [5]; 4-OH-tamoxifen in medium 0 µM) | drug sensitivity score (MCF-7 [5]; 4-OH-tamoxifen in medium 1 µM) | drug sensitivity score (T-47D Tam1 [6]) | drug sensitivity score (T-47D Tam2 [7]) | drug sensitivity score (T-47D [8]; 4-OH-tamoxifen in medium 0 µM) | drug sensitivity score (T-47D [8]; 4-OH-tamoxifen in medium 1 µM) | drug sensitivity score (ZR-75-1 Tam1 [9]) | drug sensitivity score (ZR-75-1 Tam2 [10]) | drug sensitivity score (ZR-75-1 [11]; 4-OH-tamoxifen in medium 0 µM) | drug sensitivity score (ZR-75-1 [11]; 4-OH-tamoxifen in medium 1 µM) | relative IC50 (BT-474 Tam1 [12]) | relative IC50 (BT-474 Tam2 [13]) | relative IC50 (BT-474 [14]; 4-OH-tamoxifen in medium 0 µM) | relative IC50 (BT-474 [14]; 4-OH-tamoxifen in medium 1 µM) | relative IC50 (MCF-7 Tam1 [15]) | relative IC50 (MCF-7 [16]; 4-OH-tamoxifen in medium 0 µM) | relative IC50 (MCF-7 [16]; 4-OH-tamoxifen in medium 1 µM) | relative IC50 (T-47D Tam1 [17]) | relative IC50 (T-47D Tam2 [18]) | relative IC50 (T-47D [19]; 4-OH-tamoxifen in medium 0 µM) | relative IC50 (T-47D [19]; 4-OH-tamoxifen in medium 1 µM) | relative IC50 (ZR-75-1 Tam1 [20]) | relative IC50 (ZR-75-1 Tam2 [21]) | relative IC50 (ZR-75-1 [22]; 4-OH-tamoxifen in medium 0 µM) | relative IC50 (ZR-75-1 [22]; 4-OH-tamoxifen in medium 1 µM) |
| --- | --- | --- | --- | --- | --- | --- | --- | --- | --- | --- | --- | --- | --- | --- | --- | --- | --- | --- | --- | --- | --- | --- | --- | --- | --- | --- | --- | --- | --- | --- |
| O=C(CCBr)N1CCN(C(=O)CCBr)CC1 [Pipobroman] | 0 | 0 | 0 | 0 | 0 | 0 | 0 | 0 | 0 | 0 | 0 | 0 | 0 | 0 | 0 | > 10000 nM | > 10000 nM | > 10000 nM | > 10000 nM | > 10000 nM | > 10000 nM | > 10000 nM | > 10000 nM | > 10000 nM | > 10000 nM | > 10000 nM | > 10000 nM | > 10000 nM | > 10000 nM | > 10000 nM |
| O=C(O)C1(C(=O)O)CCC1.[NH2-].[NH2-].[Pt+2] [Carboplatin] | 0 | 0 | 0 | 0 | 0 | 0 | 0 | 0 | 0 | 0 | 0 | 0 | 0 | 0 | 0 | > 10000 nM | > 10000 nM | > 10000 nM | > 10000 nM | > 10000 nM | > 10000 nM | > 10000 nM | > 10000 nM | > 10000 nM | > 10000 nM | > 10000 nM | > 10000 nM | > 10000 nM | > 10000 nM | > 10000 nM |
| Nc1cc(C(F)(F)F)c(-c2cc(N3CCOCC3)nc(N3CCOCC3)n2)cn1 [Buparlisib (BKM-120)] | 9.32 | 8.94 | 5.66 | 11.1 | 4.41 | 10.8 | 9.9 | 9.5 | 8.09 | 9.27 | 7.4 | 7.01 | 7.44 | 6.24 | 5.88 | 1350 nM | 1400 nM | 1730 nM | 870 nM | 1230 nM | 561 nM | 622 nM | 687 nM | 1090 nM | 931 nM | 1520 nM | 710 nM | 963 nM | 990 nM | 931 nM |
| Cc1c2oc3c(C)ccc(C(=O)N[C@@H]4C(=O)N[C@H](C(C)C)C(=O)N5CCC[C@H]5C(=O)N(C)CC(=O)N(C)[C@@H](C(C)C)C(=O)O[C@@H]4C)c3nc-2c(C(=O)N[C@@H]2C(=O)N[C@H](C(C)C)C(=O)N3CCC[C@H]3C(=O)N(C)CC(=O)N(C)[C@@H](C(C)C)C(=O)O[C@@H]2C)c(N)c1=O [Dactinomycin] | 20.1 | 16.1 | 11.2 | 17.9 | 16.1 | 20.2 | 20 | 18.2 | 16 | 16.8 | 12 | 19.8 | 23.2 | 20.5 | 17.4 | 18.9 nM | 35.2 nM | 22.7 nM | 27.5 nM | 24.1 nM | 11.4 nM | 13.5 nM | 8.17 nM | 8.76 nM | 7.79 nM | 8.51 nM | 9.56 nM | 8.33 nM | 4.5 nM | 9.03 nM |
| C[C@H]1C[C@@H]2[C@H]([C@@H](O)C[C@@]3(C)[C@H]2CC[C@]3(O)C(=O)CO)[C@@]2(C)C=CC(=O)C=C12 [Methylprednisolone] | 0 | 0 | 0 | 0 | 0 | 0 | 0.455 | 0 | 0 | 0 | 0 | 0 | 0 | 0 | 0 | > 10000 nM | > 10000 nM | > 10000 nM | > 10000 nM | > 10000 nM | > 10000 nM |  | > 10000 nM | > 10000 nM | > 10000 nM | > 10000 nM | > 10000 nM | > 10000 nM | > 10000 nM | > 10000 nM |
| COC1=C2C[C@@H](C)C[C@H](OC)[C@H](O)[C@@H](C)/C=C(\C)[C@H](OC(N)=O)[C@@H](OC)/C=C\C=C(/C)C(=O)NC(=CC1=O)C2=O [Geldanamycin] | 8.85 | 12.9 | 9.69 | 10.8 | 4.81 | 5.35 | 9.55 | 14.8 | 6.85 | 4.34 | 3.67 | 7.66 | 6.52 | 6.31 | 9.2 | 1250 nM | 494 nM | 563 nM | 518 nM | 1910 nM | 2790 nM | 943 nM | 235 nM | 1340 nM | 2950 nM | 3590 nM | 1120 nM | 1440 nM | 1340 nM | 1070 nM |
| CC(C)C[C@H](NC(=O)[C@H](Cc1ccccc1)NC(=O)c1cnccn1)B(O)O [Bortezomib] | 29.5 | 26.7 | 13.2 | 29.1 | 11.3 | 19.9 | 14 | 30.4 | 26.5 | 25.6 | 23.7 | 13.9 | 16.4 | 9.65 | 10.7 | 3.55 nM | 5.98 nM | 12.7 nM | 3.72 nM | 39.9 nM | 6.82 nM | 44.5 nM | 2.79 nM | 5.5 nM | 6.27 nM | 8.31 nM | 20.1 nM | 8.96 nM | 73.1 nM | 31.4 nM |
